# Read-outs that look alike come from different tables or passages of the source. *1 amine or outer side, *2 acyl side, *3 side chain or, on linkers, in order; H or OH if unused. Where a SMILES comes first, the peptide text is derived from it. Bridges are numbered along the chain shown (N, C = ends). [ ]: non-standard residue; d: D form. Hexamethylenediamine = C(CCCN[*:2])CCN[*:1]; NH(CH2)5NH = C(CCN[*:1])CCN[*:2]; Cit = NC(=O)NCCC[C@H](N)C(=O)O; X1 = O=C(CN[*:1])NCCN[*:2]
# T1: GST tagged Bcl w delta C29 protein (Homo sapiens, UniProt Q92843)
# T1 sequence (Q92843 1-164 limits assumed): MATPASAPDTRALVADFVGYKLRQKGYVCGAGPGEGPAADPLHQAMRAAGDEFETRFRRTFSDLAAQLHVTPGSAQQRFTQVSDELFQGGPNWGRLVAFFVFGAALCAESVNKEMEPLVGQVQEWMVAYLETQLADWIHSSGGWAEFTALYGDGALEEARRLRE
# T2: 6-His tagged Bcl w delta C10 protein (Homo sapiens, UniProt Q92843)
# T2 sequence (Q92843 1-183 limits assumed): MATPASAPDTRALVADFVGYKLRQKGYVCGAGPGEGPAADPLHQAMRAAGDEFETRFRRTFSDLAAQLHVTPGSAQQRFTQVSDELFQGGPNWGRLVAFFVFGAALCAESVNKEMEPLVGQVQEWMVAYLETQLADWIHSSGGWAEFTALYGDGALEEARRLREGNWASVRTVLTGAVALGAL
# Experiments:
# [1] = target: T1, GST tagged Bcl w delta C29 protein; assay: Alphascreen competition with Bim26mer, GST detection system; assay type: binding; conditions: for change in binding affinity, in words / decrease in binding affinity: Bcl-w ΔC29, compared to the linear 16-mer
# [2] = target: T2, 6-His tagged Bcl w delta C10 protein; assay: Alphascreen competition with Bim26mer, Hexa-His detection system; assay type: binding; conditions: competition with biotinylated Bim-BH3 peptide; read-out: IC50 (nM) Bcl-w ΔC10
# Source text: Alphascreen (Amplified Luminsecent Proximity Homogenous Assay) is a bead based technology which measures a biological interaction between molecules. The assay consists of two hydrogel coated beads which, when bought into close proximity by a binding interaction, allow a transfer of singlet oxygen from a donor bead to an acceptor bead.
# Upon binding a photosensitiser in the donor bead converts ambient oxygen to a more excited singlet state. This singlet oxygen then diffuses across to react with a chemiluminescer in the acceptor bead. Fluorophores within the same bead are activated, resulting in the emission of light.
# Screening of the conformationally constrained peptides was performed using the Hexa-His detection system. Non biotinylated peptides dissolved in DMSO were titrated into the assay which consisted of 6-His tagged Bcl w delta C10 protein (24 nM Final concentration) and Biotinylated Bim BH3-26 peptide, Biotin-[…] [SEQ ID NO: 40] (1.5 nM Final concentration). To this reaction mix 6His tagged (Nickel Chelate) acceptor beads and Streptavidin coated donor beads, both at 10 ug/ml Final concentration, were added.
# Assay buffer contained 50 mM Hepes pH 7.4, 10 mM DTT, 100 mM NaCl, 0.05% Tween and 1 mg/ml BSA. Bead dilution buffer contained 50 mM Tris, pH 7.5, 0.01% Tween and 1 mg/ml BSA. The final DMSO concentration in the assay was 1%. Assays were performed in 384 well white Optiplates and analysed on the Perkin Elmer Fusion plate reader (Ex680, Em520-620 […]).
# Bcl-2 ΔC22 = Bcl-2 ΔC22 (Homo sapiens, UniProt P10415); assay: Competition assay using biotinylated Bim-BH3 peptide, Bcl-2 ΔC22; assay type: binding; conditions: for IC50: competition with biotinylated Bim-BH3 peptide; for affinity for Bcl-2 and Bcl-xL over the unconstrained 12-mer, in words: compared to the unconstrained 12-mer
# Source text: The results are shown below:
# [3] = Circular dichroism, alpha-helical content of peptides; assay type: physicochemical; conditions: 30% aqueous trifluoroethanol
# Method: Circular dichroism spectra were obtained using a Jasco Model J-710 spetropolarimeter at 20° C. using the following parameters: path length, 2 mm; step resolution, 0.1 nm; speed, 20 nm/min; accumulation, 4; response, 1 second; bandwidth, 1.0 nm. The peptides were analysed at a concentration of 0.5 mg/mL in 30% aqueous TFE. The alpha-helical content of the peptides were determined by methods described in Yang et al (1986), involving comparisons of spectra with model helical peptides.
# [4] = target: GST tagged Bcl w delta C29 protein (UniProt Q92843); assay: AlphaScreen competition with biotinylated Bim BH3-26 peptide
# [5] = substituted 16-mers, Example 9, read-out: IC50 nM Bcl-w ΔC29
# [6] = Puma and Bmf peptides, Example 10, read-out: IC50 nM Bcl-w ΔC29
# [7] = competition with biotinylated Bim-BH3 peptide, 12-mers, Example 7, read-out: IC50 (nM) Bcl-w ΔC29
molecule,measurement,setting,value
Ac-AWIAQELRRIGDEFNA-NH2 [O],"change in binding affinity, in words",[1],drop in binding
same,IC50,[1]; [5],22 nM
"CC[C@H](C)[C@H](NC(=O)[C@H](C)NC(=O)[C@H](CCC(N)=O)NC(C)=O)C(=O)N[C@@H](C)C(=O)N[C@@H](CCC(N)=O)C(=O)N[C@H]1CCC(=O)NCCCCCNC(=O)CC[C@@H](C(=O)N[C@@H](Cc2ccccc2)C(=O)N[C@@H](CC(N)=O)C(=O)N[C@@H](C)C(N)=O)NC(=O)[C@H](CC(=O)O)NC(=O)CNC(=O)[C@H]([C@@H](C)CC)NC(=O)[C@H](CCCNC(=N)N)NC(=O)[C@H](CCCNC(=N)N)NC(=O)[C@H](CC(C)C)NC1=O [Peptide G, Ac-QAIAQZLRRIGDZFNA-NH2] (Ac-QAIAQELRRIGDEFNA-NH2; linker 6-13 via NH(CH2)5NH)",IC50,[1],2.4 nM
Ac-REIGAQLRRMADDLNA-NH2 [Puma],IC50,[1]; [6],52 nM
Ac-IFIAQELRRIGDEFNA-NH2 [N],"change in binding affinity, in words",[1],drop in binding
same,IC50,[1]; [5],11 nM
Ac-IWAAQEARRAGDEANA-NH2 [M],IC50,[1]; [5],64000 nM
CC[C@H](C)[C@H](NC(C)=O)C(=O)N[C@@H](C)C(=O)N[C@@H](CCC(N)=O)C(=O)N[C@H]1CCC(=O)NCC(=O)NCCNC(=O)CC[C@@H](C(=O)N[C@@H](Cc2ccccc2)C(N)=O)NC(=O)[C@H](CC(=O)O)NC(=O)CNC(=O)[C@H]([C@@H](C)CC)NC(=O)[C@H](CCCNC(=N)N)NC(=O)[C@H](CCCNC(=N)N)NC(=O)[C@H](CC(C)C)NC1=O [D] (Ac-IAQELRRIGDEF-NH2; linker 4-11 via X1),IC50,[1]; [7],160 nM
same,IC50,[2],40 nM
same,IC50,Bcl-2 ΔC22,6900 nM
same,% Helicity,[3],16%
Ac-VQIARKLQAIADQFHR-NH2 [Bmf],IC50,[1]; [6],0.25 nM
"CC[C@H](C)[C@H](NC(C)=O)C(=O)N[C@@H](C)C(=O)N[C@@H](CCC(N)=O)C(=O)N[C@H]1CCC(=O)NCCCCCCNC(=O)CC[C@@H](C(=O)N[C@@H](Cc2ccccc2)C(N)=O)NC(=O)[C@H](CC(=O)O)NC(=O)CNC(=O)[C@H]([C@@H](C)CC)NC(=O)[C@H](CCCNC(=N)N)NC(=O)[C@H](CCCNC(=N)N)NC(=O)[C@H](CC(C)C)NC1=O [C, Ac-IAQ-E-LRRIGD-E-F-NH2] (Ac-IAQELRRIGDEF-NH2; linker 4-11 via Hexamethylenediamine)",IC50,[1]; [7],120 nM
same,IC50,[2],230 nM
same,"affinity for Bcl-2 and Bcl-xL over the unconstrained 12-mer, in words",Bcl-2 ΔC22,outstanding increases in affinity
same,IC50,Bcl-2 ΔC22,2600 nM
same,% Helicity,[3],39%
Ac-IWIAQQLRRIGDQFNA-NH2 [H],IC50,[1]; [5],3.3 nM
Ac-IWIAQELRRIGDEFAA-NH2 [Peptide S],"change in binding affinity, in words",[1],"only slight, if any, loss of binding affinity"
same,IC50,[1]; [5],3.3 nM
Ac-IRIAQELRRIGDEFNA-NH2 [Q],"change in binding affinity, in words",[1],drop in binding
same,IC50,[1]; [5],17 nM
Ac-IWAAQELRRIGDEFNA-NH2 [Peptide I],"change in binding affinity, in words",[1],slight decrease in binding affinity
same,decrease in binding affinity,[1],100 fold
same,IC50,[1]; [5],360 nM
Ac-IAIAQELRRIGDEFNA-NH2 [P],"change in binding affinity, in words",[1],drop in binding
same,IC50,[1]; [5],42 nM
Ac-IWIAQELRRIGDEFNN-NH2 [Peptide U],decrease in binding affinity,[1],two
same,IC50,[1]; [5],5.8 nM
Ac-IWIAQELRRAGDEFNA-NH2 [Peptide K],decrease in binding affinity,[1],3 fold
same,IC50,[1]; [5],7.3 nM
"Ac-IWIAQELRRIGDEFNA-NH2 [linear 16-mer, reference compound]",IC50,"[1]; competition with biotinylated BIM-BH3 peptide, 16-mers, Example 8, read-out: IC50 (nM) Bcl-w ΔC29",2.5 nM
"Ac-IAQELRRIGDEF-NH2 [Linear 12mer, reference compound]",IC50,[1]; [7],4700 nM
same,IC50,[2],870 nM
same,IC50,Bcl-2 ΔC22,240000 nM
same,% Helicity,[3],9%
Ac-IWIAQEARRIGDEFNA-NH2 [Peptide J],decrease in binding affinity,[1],about 1000 fold
same,IC50,[1]; [5],3700 nM
Ac-IWIAQELRRIGDEANA-NH2 [Peptide L],decrease in binding affinity,[1],"1,000 fold"
same,IC50,[1]; [5],3500 nM
CC[C@H](C)[C@H](NC(C)=O)C(=O)N[C@@H](Cc1c[nH]c2ccccc12)C(=O)N[C@H](C(=O)N[C@@H](C)C(=O)N[C@@H](CCC(N)=O)C(=O)N[C@@H](CCC(=O)O)C(=O)N[C@@H](CC(C)C)C(=O)N[C@@H](CCCNC(N)=O)C(=O)N[C@@H](CCCNC(N)=O)C(=O)N[C@H](C(=O)NCC(=O)N[C@@H](CC(=O)O)C(=O)N[C@@H](CCC(=O)O)C(=O)N[C@@H](Cc1ccccc1)C(=O)N[C@@H](CC(N)=O)C(=O)N[C@@H](C)C(N)=O)[C@@H](C)CC)[C@@H](C)CC [Peptide T] (Ac-IWIAQEL[Cit][Cit]IGDEFNA-NH2),IC50,[1]; [5],20 nM
Ac-IWIAQELRRIGDEFAN-NH2 [Peptide R],IC50,[1]; [5],12 nM
"CC[C@H](C)[C@H](NC(=O)[C@@H]1CCC(=O)NCCCCCNC(=O)CC[C@H](NC(C)=O)C(=O)N[C@@H]([C@@H](C)CC)C(=O)N[C@@H](C)C(=O)N[C@@H](CCC(N)=O)C(=O)N[C@@H](CCC(=O)O)C(=O)N[C@@H](CC(C)C)C(=O)N[C@@H](CCCNC(=N)N)C(=O)N1)C(=O)NCC(=O)N[C@@H](CC(=O)O)C(=O)N[C@@H](CCC(=O)O)C(=O)N[C@@H](Cc1ccccc1)C(N)=O [A, Ac-E-IAQELR-E-IGDEF-NH2] (Ac-EIAQELREIGDEF-NH2; linker 1-8 via NH(CH2)5NH)",IC50,[1]; [7],1800 nM
same,IC50,[2],2600 nM
same,IC50,Bcl-2 ΔC22,26000 nM
same,% Helicity,[3],33%
"CC[C@H](C)[C@H](NC(C)=O)C(=O)N[C@@H](C)C(=O)N[C@@H](CCC(N)=O)C(=O)N[C@H]1CCC(=O)NCCCCCNC(=O)CC[C@@H](C(=O)N[C@@H](Cc2ccccc2)C(N)=O)NC(=O)[C@H](CC(=O)O)NC(=O)CNC(=O)[C@H]([C@@H](C)CC)NC(=O)[C@H](CCCNC(=N)N)NC(=O)[C@H](CCCNC(=N)N)NC(=O)[C@H](CC(C)C)NC1=O [Peptide B, Acetyl-IAQ(E1)LRRIGD(E2)F-amide] (Ac-IAQELRRIGDEF-NH2; linker 4-11 via NH(CH2)5NH)",IC50,[1]; [7],150 nM
same,IC50,[2],65 nM
same,"affinity for Bcl-2 and Bcl-xL over the unconstrained 12-mer, in words",Bcl-2 ΔC22,outstanding increases in affinity
same,IC50,Bcl-2 ΔC22,290 nM
same,% Helicity,[3],28%
CC[C@H](C)[C@H](NC(C)=O)C(=O)N[C@@H](Cc1c[nH]c2ccccc12)C(=O)N[C@H](C(=O)N[C@@H](C)C(=O)N[C@@H](CCC(N)=O)C(=O)N[C@H]1CCC(=O)NCCCCCNC(=O)CC[C@@H](C(=O)N[C@@H](Cc2ccccc2)C(=O)N[C@@H](CC(N)=O)C(=O)N[C@@H](C)C(N)=O)NC(=O)[C@H](CC(=O)O)NC(=O)CNC(=O)[C@H]([C@@H](C)CC)NC(=O)[C@H](CCCNC(=N)N)NC(=O)[C@H](CCCNC(=N)N)NC(=O)[C@H](CC(C)C)NC1=O)[C@@H](C)CC [E] (Ac-IWIAQELRRIGDEFNA-NH2; linker 6-13 via NH(CH2)5NH),IC50,"[1]; values repeated in text, read-out: binding of the constrained peptide to Bcl-w",0.5 nM
"Ac-IWAAQEARRAGDEANA-NH2 [Peptide M (linear), Ac-…-NH2]",fold decrease in binding affinity (against the linear 16-mer),[4],25000 fold
"Ac-IWAAQELRRIGDEFNA-NH2 [Peptide I (linear), Ac-…-NH2]",fold decrease in binding affinity (against the linear 16-mer),[4],100 fold
"Ac-IWIAQELRRIGDEFNN-NH2 [Peptide U (linear), Ac-…-NH2]",fold loss of binding affinity (against the linear 16-mer),[4],2 fold
"Ac-IWIAQELRRIGDEANA-NH2 [Peptide L (linear), Ac-…-NH2]",fold decrease in affinity (against the linear 16-mer),[4],1000 fold
"Ac-IWIAQEARRIGDEFNA-NH2 [Peptide J (linear), Ac-…-NH2]",fold decrease in affinity (against the linear 16-mer),[4],1000 fold
"Ac-IWIAQELRRAGDEFNA-NH2 [Peptide K (linear), Ac-…-NH2]",fold decrease in affinity (against the linear 16-mer),[4],3 fold
